# Experimental data: ChEMBL document CHEMBL3991601, “The target landscape of clinical kinase drugs” (Science, 2017)
# The source made the active and inactive calls. For most assays here, no stated cut-off is given here; in the data, actives have a measured Kd and inactives only a lower limit.
# What was measured:
# [1] = target: Tyrosine-protein kinase Lyn (Homo sapiens, UniProt P07948)
# [2] = target: Serine/threonine-protein kinase 16 (Homo sapiens, UniProt O75716)
# [3] = target: T1, MAP/microtubule affinity-regulating kinase 4 (Homo sapiens, UniProt Q96L34)
# T1 sequence (Q96L34 whole entry): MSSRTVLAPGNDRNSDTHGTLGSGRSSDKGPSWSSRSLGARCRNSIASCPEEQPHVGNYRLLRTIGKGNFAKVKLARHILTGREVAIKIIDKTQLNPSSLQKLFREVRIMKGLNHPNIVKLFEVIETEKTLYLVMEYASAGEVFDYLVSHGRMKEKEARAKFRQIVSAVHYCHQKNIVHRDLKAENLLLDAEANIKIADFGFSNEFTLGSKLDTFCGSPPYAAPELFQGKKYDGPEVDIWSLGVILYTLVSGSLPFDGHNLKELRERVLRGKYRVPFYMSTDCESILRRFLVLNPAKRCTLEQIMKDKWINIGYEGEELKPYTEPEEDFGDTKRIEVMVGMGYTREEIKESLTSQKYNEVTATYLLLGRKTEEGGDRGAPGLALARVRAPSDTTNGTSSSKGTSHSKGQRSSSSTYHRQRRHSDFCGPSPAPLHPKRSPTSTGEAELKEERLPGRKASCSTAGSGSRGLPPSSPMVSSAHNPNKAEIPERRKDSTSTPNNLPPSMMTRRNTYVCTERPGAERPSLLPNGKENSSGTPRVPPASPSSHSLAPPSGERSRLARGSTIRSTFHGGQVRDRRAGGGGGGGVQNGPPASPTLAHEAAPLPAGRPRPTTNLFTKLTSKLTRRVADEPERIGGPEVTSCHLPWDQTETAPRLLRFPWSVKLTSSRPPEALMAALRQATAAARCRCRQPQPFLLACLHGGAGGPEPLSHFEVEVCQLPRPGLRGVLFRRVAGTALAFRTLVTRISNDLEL
# Pyridoxal kinase = target: T2, Pyridoxal kinase (Homo sapiens, UniProt O00764)
# T2 sequence (O00764 whole entry): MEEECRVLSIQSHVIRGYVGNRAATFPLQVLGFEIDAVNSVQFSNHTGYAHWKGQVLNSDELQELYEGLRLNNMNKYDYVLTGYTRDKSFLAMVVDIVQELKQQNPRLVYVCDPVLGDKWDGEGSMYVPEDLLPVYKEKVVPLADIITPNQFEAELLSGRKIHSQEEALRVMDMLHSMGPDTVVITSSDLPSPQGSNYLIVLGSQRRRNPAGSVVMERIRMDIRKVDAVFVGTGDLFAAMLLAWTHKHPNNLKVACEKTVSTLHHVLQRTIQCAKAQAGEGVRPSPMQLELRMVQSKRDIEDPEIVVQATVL
# [4] = target: T3, Breakpoint cluster region protein (Homo sapiens, UniProt P11274)
# T3 sequence (P11274 whole entry): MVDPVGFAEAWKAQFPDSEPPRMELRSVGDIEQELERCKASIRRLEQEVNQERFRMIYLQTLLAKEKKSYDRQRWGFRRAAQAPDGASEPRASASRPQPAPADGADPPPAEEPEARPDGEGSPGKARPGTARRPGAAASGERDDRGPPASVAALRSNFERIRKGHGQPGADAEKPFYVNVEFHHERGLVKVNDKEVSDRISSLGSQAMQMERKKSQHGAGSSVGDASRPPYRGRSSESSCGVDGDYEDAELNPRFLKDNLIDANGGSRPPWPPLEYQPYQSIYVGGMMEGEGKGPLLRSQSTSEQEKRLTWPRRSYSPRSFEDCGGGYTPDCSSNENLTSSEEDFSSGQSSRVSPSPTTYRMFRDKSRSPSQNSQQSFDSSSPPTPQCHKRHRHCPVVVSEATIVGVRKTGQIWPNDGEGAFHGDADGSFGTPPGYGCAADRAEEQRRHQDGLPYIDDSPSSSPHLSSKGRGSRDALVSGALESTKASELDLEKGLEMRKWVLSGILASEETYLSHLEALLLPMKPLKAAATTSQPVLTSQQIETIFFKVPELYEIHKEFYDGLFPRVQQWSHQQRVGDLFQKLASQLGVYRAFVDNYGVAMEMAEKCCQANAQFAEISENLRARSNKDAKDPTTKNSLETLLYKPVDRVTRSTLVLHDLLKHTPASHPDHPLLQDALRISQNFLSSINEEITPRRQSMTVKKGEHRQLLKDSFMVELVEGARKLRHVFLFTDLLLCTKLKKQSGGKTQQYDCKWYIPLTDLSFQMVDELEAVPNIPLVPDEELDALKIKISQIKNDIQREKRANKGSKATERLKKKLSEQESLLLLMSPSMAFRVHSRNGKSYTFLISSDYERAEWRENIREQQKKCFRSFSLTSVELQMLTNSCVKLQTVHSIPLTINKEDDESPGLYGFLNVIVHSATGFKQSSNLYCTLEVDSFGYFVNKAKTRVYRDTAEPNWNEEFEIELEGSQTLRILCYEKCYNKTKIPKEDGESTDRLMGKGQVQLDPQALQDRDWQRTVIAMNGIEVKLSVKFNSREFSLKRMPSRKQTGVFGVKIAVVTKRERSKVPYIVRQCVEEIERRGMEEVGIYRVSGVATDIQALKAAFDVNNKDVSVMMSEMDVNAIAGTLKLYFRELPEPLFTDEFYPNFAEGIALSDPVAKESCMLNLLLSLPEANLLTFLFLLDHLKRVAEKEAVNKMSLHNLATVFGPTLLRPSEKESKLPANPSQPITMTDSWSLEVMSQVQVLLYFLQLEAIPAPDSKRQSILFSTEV
# [5] = target: T4, Serine/threonine-protein kinase A-Raf (Homo sapiens, UniProt P10398)
# T4 sequence (P10398 whole entry): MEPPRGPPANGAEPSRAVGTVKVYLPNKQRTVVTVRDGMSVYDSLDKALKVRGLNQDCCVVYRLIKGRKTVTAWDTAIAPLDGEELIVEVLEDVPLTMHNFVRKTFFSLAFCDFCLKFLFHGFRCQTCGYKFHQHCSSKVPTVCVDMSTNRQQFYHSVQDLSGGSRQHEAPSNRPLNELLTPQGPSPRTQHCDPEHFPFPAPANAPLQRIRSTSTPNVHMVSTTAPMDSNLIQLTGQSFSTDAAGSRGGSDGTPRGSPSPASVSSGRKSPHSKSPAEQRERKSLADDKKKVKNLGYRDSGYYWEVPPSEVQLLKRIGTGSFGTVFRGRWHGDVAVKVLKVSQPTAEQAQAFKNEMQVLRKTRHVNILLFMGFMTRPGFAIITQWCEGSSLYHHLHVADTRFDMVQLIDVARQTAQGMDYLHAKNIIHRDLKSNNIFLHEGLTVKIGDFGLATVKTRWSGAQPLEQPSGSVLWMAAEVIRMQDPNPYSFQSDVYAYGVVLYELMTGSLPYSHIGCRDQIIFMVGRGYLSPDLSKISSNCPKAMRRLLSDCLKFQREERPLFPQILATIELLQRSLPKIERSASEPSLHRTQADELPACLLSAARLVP
# Chain of Serine/threonine-protein kinase 16 (O75716 whole entry): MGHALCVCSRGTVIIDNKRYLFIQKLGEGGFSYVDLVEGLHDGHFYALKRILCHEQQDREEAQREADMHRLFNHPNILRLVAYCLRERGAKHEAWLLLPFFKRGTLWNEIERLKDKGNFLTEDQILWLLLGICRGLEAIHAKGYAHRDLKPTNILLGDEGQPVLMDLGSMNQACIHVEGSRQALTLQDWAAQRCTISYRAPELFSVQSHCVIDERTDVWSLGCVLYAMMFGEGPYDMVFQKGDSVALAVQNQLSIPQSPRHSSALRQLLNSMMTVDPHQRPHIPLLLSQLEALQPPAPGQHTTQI
# Chain of Tyrosine-protein kinase Lyn (P07948 whole entry): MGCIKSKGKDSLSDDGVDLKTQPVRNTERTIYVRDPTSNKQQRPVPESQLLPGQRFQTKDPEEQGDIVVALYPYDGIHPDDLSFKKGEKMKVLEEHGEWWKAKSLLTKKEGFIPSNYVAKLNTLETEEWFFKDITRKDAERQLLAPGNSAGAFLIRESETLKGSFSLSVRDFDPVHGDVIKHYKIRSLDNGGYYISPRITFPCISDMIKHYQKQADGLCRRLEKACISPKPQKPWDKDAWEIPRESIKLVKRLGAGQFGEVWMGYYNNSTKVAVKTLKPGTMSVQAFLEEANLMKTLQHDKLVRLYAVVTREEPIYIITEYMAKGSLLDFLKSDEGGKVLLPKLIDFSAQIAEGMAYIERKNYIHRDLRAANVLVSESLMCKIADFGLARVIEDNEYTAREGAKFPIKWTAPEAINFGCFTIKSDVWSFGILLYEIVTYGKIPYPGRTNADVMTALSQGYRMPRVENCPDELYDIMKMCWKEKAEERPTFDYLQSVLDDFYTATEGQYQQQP
Kd [1],Kd [2],Kd [3],Kd (Pyridoxal kinase),Kd [4],Kd [5],Compound
> 30 µM (inactive),> 30 µM (inactive),> 30 µM (inactive),> 30 µM (inactive),1.97 µM (active),> 30 µM (inactive),Cc1csc(-c2nnc(Nc3ccc(Oc4ncccc4-c4ccnc(N)n4)cc3)c3ccccc23)c1 [AMG-900]
> 30 µM (inactive),> 30 µM (inactive),> 30 µM (inactive),> 30 µM (inactive),> 30 µM (inactive),> 30 µM (inactive),Cc1cc(C(=O)NOCCO)c(Nc2ccc(I)cc2F)n(C)c1=O [AZD-8330]
> 30 µM (inactive),> 30 µM (inactive),> 30 µM (inactive),> 30 µM (inactive),> 30 µM (inactive),> 30 µM (inactive),CCn1c(C(=O)N(C2CC2)C2CC2)cc2c3c(ncn3C)c(Nc3cc(C)n(C)n3)nc21 [BMS-911543]
0.771 µM (active),> 30 µM (inactive),> 30 µM (inactive),> 30 µM (inactive),0.041 µM (active),> 30 µM (inactive),COc1cc2ncnc(Oc3cccc(NC(=O)Nc4cc(C(C)(C)C(F)(F)F)on4)c3)c2cc1OC [CEP-32496]

# The remaining lines, values behind:
Compound,Kd [1],Kd [2],Kd [3],Kd (Pyridoxal kinase),Kd [4],Kd [5]
C=CC(=O)N1CCC[C@H](n2c(=O)n(-c3ccc(Oc4ccccc4)cc3)c3c(N)ncnc32)C1,0.006 µM,> 30 µM (inactive),> 30 µM (inactive),> 30 µM (inactive),> 30 µM (inactive),–
Cc1nc2cc(-c3nn(C(C)C)c4ncnc(N)c34)ccc2o1,> 30 µM (inactive),2.01 µM (active),> 30 µM (inactive),> 30 µM (inactive),> 30 µM (inactive),> 30 µM (inactive)
COCc1c(-c2ccc(NC(=O)Nc3cc(C(F)(F)F)ccc3F)c(F)c2)c2c(N)ncnn2c1CN1CCOCC1,> 30 µM (inactive),> 30 µM (inactive),> 30 µM (inactive),> 30 µM (inactive),4.21 µM (active),> 30 µM (inactive)
Nc1ncnc2c1c(-c1cccc(OCc3ccccc3)c1)cn2[C@H]1C[C@@H](CN2CCC2)C1 [AEW-541],2.44 µM (active),> 30 µM (inactive),> 30 µM (inactive),> 30 µM (inactive),> 30 µM (inactive),> 30 µM (inactive)
COc1cc(Nc2ncc3c(n2)-c2ccc(Cl)cc2C(c2c(F)cccc2OC)=NC3)ccc1C(=O)O [ALISERTIB],> 30 µM (inactive),> 30 µM (inactive),> 30 µM (inactive),> 30 µM (inactive),> 30 µM (inactive),> 30 µM (inactive)
C=CC(=O)Nc1cc2c(Nc3ccc(F)c(Cl)c3)ncnc2cc1C#CC(C)(C)N1CCN(C)CC1 [AV-412 FREE BASE],> 30 µM (inactive),> 30 µM (inactive),> 30 µM (inactive),> 30 µM (inactive),> 30 µM (inactive),> 30 µM (inactive)
NC(=O)Nc1cc(-c2cccc(F)c2)sc1C(=O)N[C@H]1CCCNC1 [AZD-7762],0.48 µM (active),> 30 µM (inactive),0.475 µM (active),> 30 µM (inactive),–,> 30 µM (inactive)
Cn1cnc2c(F)c(Nc3ccc(Br)cc3F)c(C(=O)NOCCO)cc21 [BINIMETINIB],> 30 µM (inactive),> 30 µM (inactive),> 30 µM (inactive),> 30 µM (inactive),> 30 µM (inactive),> 30 µM (inactive)
Cc1cc(Nc2ncc(Cl)c(Nc3ccccc3S(=O)(=O)C(C)C)n2)c(OC(C)C)cc1C1CCNCC1 [CERITINIB],> 30 µM (inactive),> 30 µM (inactive),> 30 µM (inactive),> 30 µM (inactive),> 30 µM (inactive),> 30 µM (inactive)
Cc1nc2cc(-n3ncc(C(=O)c4cc5ccccc5[nH]4)c3N)ccc2[nH]1 [FGFR INHIBITOR DEBIO 1347],> 30 µM (inactive),> 30 µM (inactive),> 30 µM (inactive),2.11 µM (active),> 30 µM (inactive),–
